# Where two headings read alike, the source gives them in different places.
# Columns and labels:
# [1] = test system: Culex pipiens quinquefasciatus 4th instar larvae; test: Uptake and photo-inactivation in mosquito larvae kept in dye-containing water; assay type: in vivo
# Method: Panel [A]: Culex pipiens quinquefasciatus 4th instar larvae exposed to rose Bengal (10 μg/mL) (˜20 larvae/5 mL water/well in 6-well plate) in dark for ˜24 hours followed by exposure to white light for ˜6 hrs at ˜2500 lux. Panels [B] and [C]: Phlebotomus duboscqi female (B) and male (C) adult flies (˜20 flies/screened paper cup) fed with 5% sucrose solution and 500 μL of 5 mg/mL rose bengal in a cotton ball for ˜20 hrs in the dark followed by exposure to ˜2500 lux of white light for 3 hrs. Duplicate samples were prepared and kept in the dark as controls. Rose bengal was taken up by the mosquito larvae and sand flies of both sexes.
# Culex pipiens quinquefasciatus 4th instar larvae were exposed to rose Bengal or cyanosine (10 μg/mL) (˜20 larvae/5 mL water/well in 6-well plate) in the dark for ˜24 hours followed by exposure to white light for ˜6 hrs at ˜2500 lux; Phlebotomus duboscqi female (FIG. 1, panel B) and male (FIG. 1, panel C) adult flies (˜20 flies/screened paper cup) fed with 5% sucrose solution and 500 μL of 5 mg/ml rose bengal in a cotton ball for ˜20 hrs in the dark followed by exposure to ˜2500 lux of white light for 3 hrs. Duplicate samples were prepared and kept in the dark as controls.
# The susceptibility of PS-sensitized insects to white light illumination varied with the species and the PSs used. […]
# [2] = test system: Aedes albopictus clone C6/36 (ATCC CRL-1660); test: Uptake of PS by mosquito cells in vitro and photo-inactivation; conditions: for state of sensitized cells after light exposure: white light, 4 hrs
# Method: The insect cells were exposed to both dyes overnight and illuminated with white light under conditions similar to those described for mammalian and Leishmania cells. Images were captured first under differential interference (DIF) [A] and then under the filter sets for DAPI and Texas red [B]. [C] Chemical structure of cyanosione and rose Bengal.
# Uptake of PS was assessed in insect cells, specifically Aedes albopictus clone C6/36 (ATCC CRL-1660). The insect cells were exposed to both dyes overnight and illuminated with white light under conditions similar to those described for mammalian and Leishmania cells. […] Images were captured first under differential interference (DIF) [A] and then under the filter sets for DAPI and Texas red [B]. [C] Chemical structure of cyanosione and rose Bengal.
# [3] = test system: Aedes mosquito larvae; test: PDI assay of light-activated larvicidal activity (larva mobility); assay type: in vivo, A. aegypti and A. albopictus; conditions: for EC50: 2nd instar larvae, estimated from concentration vs. larvicidal activity curve, 16 hours PS exposure in dark, then white light, read-out: EC50 for PDT-mediated 2nd-instar larvicidal activities; for 2nd instar larvicidal activity (larva immobilization, % of dark control) compared with positive controls RB and CY: 1/1000 dilution of stock, white light up to 7 hours
# From the text: 2nd to 4th instar larvae of A. aegypti and A. albopictus (or Aedes mosquitoes in brief) were used in the experiments, as they are known vectors of Zika fever and other viral diseases. Colonies of both species were reared to provide the larvae of all instars under the approved conditions of a humidified “warm room” (˜28 C, ˜80% relative humidity).
# The PDI assay to determine the larvicidal activities of the PS in Table 1 was based on procedures developed for mammalian and protozoa cells with modifications for mosquito larvae. Briefly, each PS was tested in 3-4 concentrations in 10-fold serial dilutions, starting with a 1/100 dilution of the stock solution (see Table 1 for the PS stock concentrations) as the highest. The solvent (DMSO) at these PS concentrations was ≤1%, which was pre-tested alone and shown to have no larvicidal activity. Larvae were PS-exposed (and not exposed as a control) in groups of 20 per 5 mL of water per well of a 6-well plate, in duplicate. All plates were foil-wrapped for overnight incubation under dark conditions in the “warm room.” After 16 hours of PS exposure, one of the duplicate 6-well plates was un-wrapped and the lid removed for exposure from the top with white light from a fluorescent tube-containing box (1-2 J/cm^2). The remaining 6-well plate of the duplicate was exposed under exactly the same conditions, but remained foil-wrapped as the dark control. Larvae were checked for mobility and readings recorded hourly for up to 7 hours. […] Each condition was repeated 4-5 times in independent experiments.
# [4] = 1/10000 dilution of the stocks, light-activated
Molecule,"phototoxicity to mosquito larvae ([1]; 10 μg/mL, dark ~24 hours, then white light ~6 hrs at ~2500 lux)",difference of sensitized larvae between dark and light conditions ([1]; motility as viability readout),state of sensitized cells kept in the dark ([2]; dark),state of sensitized cells after light exposure [2],state of sensitized cells after light exposure ([2]; listed as RB),"viability of 2nd to 4th instar larvae [3, 4]",EC50 ([3]; Aedes) [nM],"2nd instar larvicidal activity (larva immobilization, % of dark control) compared with positive controls RB and CY [3]","effect on the other instars (3rd, 4th) [3, 4]",EC50 [3] [nM]
O=C([O-])c1c(Cl)c(Cl)c(Cl)c(Cl)c1-c1c2cc(I)c(=O)c(I)c-2oc2c(I)c([O-])c(I)cc12.[Na+].[Na+] [Rose Bengal],especially evident,significant,remained adherent and intact,cellular disintegration,became disintegrated,reduced the viability of all instars to a variable extent,250,–,–,–
Meso- Tetraphenylpor- phine disulphonic acid dihydrochoride [TPPS2],–,–,–,–,–,–,–,most similar to RB,unscathed,–
"Meso-tetra(4- n,n,n- trimethylanili- nium) porphine tetrachloride [TMAP]",–,–,–,–,–,–,–,most similar to RB,unscathed,100

# — patent US10070648B2, “Photodynamic insecticides” (ROSALIND FRANKLIN UNIVERSITY OF MEDICINE AND SCIENCE, priority 2016, dated 2018)
